In patent publication US8779158B2, “Trisubstituted pyrazoles as acetylcholine receptor modulators” (Janssen Pharmaceutica NV, priority 2008, dated 2014):

Legend:
hα7-wt nAChR = molecular target: T1, hα7-wt nAChR (Homo sapiens, UniProt P36544); assay: Ca2+ flux imaging (FDSS) (Protocol B), potentiation of the choline response; format: cell-based; details: Ca2+ assay as described in D.1; for EC50: "<5" = activity did not reach a top plateau at maximal concentration; for Emax: read-out: % Efficacy
T1 construct: expressed in transfected cells
T1 sequence (P36544 23-502): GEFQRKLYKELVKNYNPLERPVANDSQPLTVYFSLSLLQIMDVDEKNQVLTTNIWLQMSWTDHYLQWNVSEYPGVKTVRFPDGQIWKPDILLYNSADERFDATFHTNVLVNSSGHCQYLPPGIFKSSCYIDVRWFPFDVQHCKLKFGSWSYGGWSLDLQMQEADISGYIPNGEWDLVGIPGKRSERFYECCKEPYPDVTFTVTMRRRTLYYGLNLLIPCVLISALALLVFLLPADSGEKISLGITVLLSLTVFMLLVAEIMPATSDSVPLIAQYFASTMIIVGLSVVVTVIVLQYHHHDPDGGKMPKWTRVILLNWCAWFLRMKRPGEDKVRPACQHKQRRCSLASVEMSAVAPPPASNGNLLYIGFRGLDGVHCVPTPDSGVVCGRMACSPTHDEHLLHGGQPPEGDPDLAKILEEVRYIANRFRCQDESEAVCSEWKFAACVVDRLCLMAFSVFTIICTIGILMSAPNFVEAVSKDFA
Method in brief: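 Cells expressing hα7-wt nAChR, loaded with fluo-4AM (2 μM final) in HBSS with 10 mM HEPES, 5 mM CaCl2, 0.1% BSA and probenecid; compound (0.01–30 μM) added up to 10 min before 100 μM choline. Peak fluorescence potentiation relative to choline alone (100%); EC50 from sigmoidal curve.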

[1] = molecular target: T2, hα7-wt nAChR-expressing GH4C1 cells (Homo sapiens, UniProt P36544); assay: Patch-clamp current recording (whole-cell voltage clamp), potentiation of the choline current and PAM type; format: cell-based; set-up: key: Type 0 compounds minimally enhance the effect size of the current elicited by 1 mM choline.; Type 1 compounds enhance the effect size of the current elicited by 1 mM choline but minimally alter the kinetics of the receptor.; Type 2 compounds enhance the effect size of the current elicited by 1 mM choline while reducing the rate and/or the extent of desensitization.; Type 3 compounds enhance the effect size of the current elicited by 1 mM choline. When tested at higher concentrations up to 10 μM they completely inhibit desensitization, in particular a 1 mM choline application of 250 milliseconds.; Type 4 compounds allow for an initial desensitization of the receptor followed by a re-opening of the receptor during agonist application; details: 1 mM choline
T2 construct: expressed in transfected cells
T2 sequence (P36544 23-502): as above
Protocol: The compounds of the present invention are classified as type 1-4, based on qualitative kinetic properties, as determined by whole-cell voltage-clamp recordings. This classification is based on the effect of an α7 PAM compound, as described hereinbefore, on the signal elicited by an agonist application. In particular, said agonist is choline at a concentration of 1 mM. In a preferred experimental setting, said α7 PAM compound and choline are simultaneously applied to the cell, as described hereinafter. Desensitization is defined as the closure of the receptor upon activation during the application of the agonist in whole-cell voltage-clamp electrophysiology measurements seen as the reduction of the […] current after initial activation by the agonist.
The definition of the PAM types 1-4 is described hereinafter: • Type 0 compounds minimally enhance the effect size of the current elicited by 1 mM choline. • Type 1 compounds enhance the effect size of the current elicited by 1 mM choline but minimally alter the kinetics of the receptor. In particular, the rate and the extent of desensitization, elicited by the agonist, is not affected. The compound-modulated response to 1 mM choline, therefore, is a close to linear scaling of the 1 mM choline response in absence of the α7 PAM compound. • Type 2 compounds enhance the effect size of the current elicited by 1 mM choline while reducing the rate and/or the extent of desensitization. • Type 3 compounds enhance the effect size of the current elicited by 1 mM choline. […] At low-potency concentrations of the α7 PAM compound, the agonist-induced activation, which is followed by desensitization, can still be separated from the compound-induced re-opening as an initial inward current-maximum. At higher potency concentrations of the α7 PAM compound, the re-opening occurs faster than the closure due to desensitization so that the initial current-maximum disappears.
A compound was considered to have interesting PAM-like activity when the potentiation of the peak current was at least 200% compared to the control choline response (=100%). Such compounds are classified as belonging to a particular PAM type in the Experimental Part. Compounds not meeting the condition are not classified as belonging to a particular PAM-type.
The compounds also have a potentiating effect on the response to choline when measured by whole-cell patch clamp electrophysiology in GH4C1 cells stably over-expressing the human wild-type α7 receptor.
Patch-Clamp Current Recording
Patch-clamp recording from mammalian cells has provided a powerful means of assessing the function of membrane-bound proteins thought to be subunits of ligand-gated ion channels. Activation of such proteins by endogenous or exogenous ligands cause opening of a pore associated with the receptor through which ions flow down their electrochemical gradient. In the case of the hα7-wt nAChR-expressing GH4C1 recombinant cell line the preferential permeability to calcium of this receptor means that calcium flows into the cell upon activation by ACh, choline and other nicotinic ligands giving rise to a calcium current. Since this receptor rapidly desensitizes in the presence of agonist it is important an application system is used which is capable of very rapid switching of solutions (<100 ms) to prevent partial or full desensitisation of receptor responses coincident with the time of agonist application. Consequently, a second convenient technique to assess the enhancement of nicotinic efficacy is patch-clamp recording from hα7-wt nAChR-expressing GH4C1 cells coupled with a rapid-application system.
• The external recording solution consisted of 152 mM NaCl, 5 mM KCl, 1 mM MgCl2, 1 mM Calcium, 10 mM HEPES; pH 7.3. […]

SMILES | melting point | EC50 (hα7-wt nAChR) | PAM type [1] | Emax (hα7-wt nAChR)
CNC(=O)Cn1nc(Nc2ccc3c(c2)OC(F)(F)O3)cc1-c1ccc2c(c1)OCCO2 [compound 97] | 171.5 to 171.8 °C | 1.12 µM | – | –
CNC(=O)Cn1nc(Nc2cccc(F)c2)cc1-c1ccc2c(c1)OCCO2 [compound 72] | 189.5 to 194 °C | 0.646 µM | 2 | –
CNC(=O)Cn1nc(Nc2ccc(F)cc2)cc1-c1ccc2c(c1)OCCO2 [compound 73] | 169.9 to 177.3 °C | 0.437 µM | 3 | –
CNC(=O)Cn1nc(Nc2ccc(F)c(F)c2)cc1-c1ccc2c(c1)OCCO2 [compound 7, 3-[(3,4-difluorophenyl)amino]-5-(2,3-dihydro-1,4-benzodioxin-6-yl)-N-methyl-1H-pyrazole-1-acetamide] | 189.5 to 194.5 °C | 0.195 µM | 2 | –
Cc1cc(-c2cc(Nc3ccc4c(c3)OC(F)(F)O4)nn2CC(=O)NC2CCC2)cc(C)n1 [compound 158] | – | 0.363 µM | 1 | 509%
CNC(=O)Cn1nc(Nc2cccc(OC(F)(F)F)c2)cc1-c1ccc2c(c1)OCCO2 [compound 77] | – | 0.417 µM | 4 | –
CCNC(=O)Cn1nc(Nc2cccc(Cl)c2F)cc1-c1cc(C)nc(C)c1 [compound 154] | – | 0.525 µM | 2 | 901%
CCNC(=O)Cn1nc(Nc2cccc(C(F)(F)F)c2)cc1-c1ccnc(C)c1 [compound 36] | – | 1.91 µM | 2 | –
CNC(=O)Cn1nc(Nc2ccc3c(c2)OC(F)(F)O3)cc1-c1ccnc(C)c1 [compound 92] | – | 1.86 µM | 2 | –
CC[C@H](O)Cn1nc(Nc2cc(F)cc(F)c2)cc1-c1ccnc(COC)c1 [compound 71] | – | 1.38 µM | 1 | 700%
Cc1cc(-c2cc(Nc3ccc4c(c3)OC(F)(F)O4)nn2CC(=O)NCC2CC2)ccn1 [compound 95] | – | 0.234 µM | 2 | –
CN(C)C(=O)CCn1nc(Nc2ccc(F)c(F)c2)cc1-c1cccnc1 [compound 19] | – | 4.27 µM | 2 | –
COc1cc(Cl)cc(Nc2cc(-c3ccnc(C)c3)n(CC(=O)NCC3CC3)n2)c1 [compound 132] | – | 0.794 µM | 2 | –
Cc1cc(-c2cc(Nc3cc(F)c(F)c(F)c3)nn2CCC(=O)N(C)C)ccn1 [compound 142] | – | 0.617 µM | 2 | 816%
CC[C@H](O)Cn1nc(Nc2cc(Cl)cc(OC)c2)cc1-c1ccnc(C)c1 [compound 122] | – | 1.02 µM | 1 | –
CCNc1cc(-c2cc(Nc3ccc(F)c(F)c3)nn2C[C@H](C)O)ccn1 [compound 62] | – | 1.32 µM | 1 | –
CCNC(=O)Cn1nc(Nc2ccc3c(c2)OC(F)(F)O3)cc1-c1ccncc1 [compound 87] | – | 0.871 µM | 3 | –
Cc1cc(-c2cc(Nc3cc(F)c(F)c(F)c3)nn2CC(=O)NCC2CC2)ccn1 [compound 168] | – | 0.263 µM | 2 | 778%
Cc1cc(-c2cc(Nc3cccc(Cl)c3)nn2CC(=O)NCC2CC2)ccn1 [compound 163] | – | 0.324 µM | 2 | –
CCNC(=O)Cn1nc(Nc2cc(OC)cc(C(F)(F)F)c2)cc1-c1ccnc(C)c1C [compound 51] | – | 3.31 µM | 2 | –

SMILES | melting point | EC50 (hα7-wt nAChR) | PAM type [1] | Emax (hα7-wt nAChR)
CN(C)C(=O)CCn1nc(Nc2ccc(F)cc2)cc1-c1ccc2c(c1)OCCO2 [compound 83] | 141.6 to 143.2 °C | 0.117 µM | – | –
COCc1cc(-c2cc(Nc3ccc4c(c3)OC(F)(F)O4)nn2CCC(=O)N(C)C)ccn1 [compound 96] | – | 0.182 µM | 3 | –
CCNc1cc(-c2cc(Nc3cc(F)cc(F)c3)nn2C[C@@H](O)CC)ccn1 [compound 8, (alphaS)-3-[(3,5-difluorophenyl)amino]-alpha-ethyl-5-[2-(ethylamino)-4-pyridinyl]-1H-pyrazole-1-ethanol] | – | 0.955 µM | 1 | 1000%
CNC(=O)Cn1nc(Nc2cccc(Cl)c2)cc1-c1cc(C)nc(C)c1 [compound 54] | – | 0.977 µM | 2 | –
CCNC(=O)Cn1nc(Nc2cccc(C(F)(F)F)c2)cc1-c1cc(C)nc(C)c1 [compound 155] | – | 0.55 µM | 2 | 576%
CC[C@H](O)Cn1nc(Nc2ccc(F)c(F)c2)cc1-c1ccnc(COC)c1 [compound 6, (alphaS)-3-[(3,4-difluorophenyl)amino]-alpha-ethyl-5-[2-(methoxymethyl)-4-pyridinyl]-1H-pyrazole-1-ethanol] | – | 1.15 µM | 2 | –
CNC(=O)Cn1nc(Nc2cc(F)c(F)c(F)c2)cc1-c1ccc2c(c1)OCCO2 [compound 74] | – | 0.251 µM | 2 | –
COCc1cc(-c2cc(Nc3cccc(Cl)c3)nn2CCC(=O)N(C)C)ccn1 [compound 149] | – | 0.437 µM | 4 | –
CCOC(=O)Cn1nc(Nc2ccc(F)c(F)c2)cc1-c1ccc2c(c1)OCCO2 [compound 10, 3-[(3,4-difluorophenyl)amino]-5-(2,3-dihydro-1,4-benzodioxin-6-yl)-1H-pyrazole-1-acetic acid ethyl ester] | – | 0.245 µM | 2 | –
CC[C@H](O)Cn1nc(Nc2cc(OC)cc(C(F)(F)F)c2)cc1-c1ccnc(C)c1 [compound 183] | – | 0.794 µM | 0 | –
Cc1cnccc1-c1cc(Nc2ccc3c(c2)OC(F)(F)O3)nn1CCC(=O)N(C)C [compound 90] | – | 0.912 µM | 4 | –
CC[C@H](O)Cn1nc(Nc2cccc(Cl)c2)cc1-c1cc(C)nc(C)c1 [compound 58] | – | 0.759 µM | 1 | –
Cc1cc(-c2cc(Nc3cccc(Cl)c3F)nn2CCC(=O)N(C)C)ccn1 [compound 124] | – | 0.977 µM | 1 | –
Cc1cc(-c2cc(Nc3cccc(Cl)c3)nn2CC(=O)NC2CC2)ccn1 [compound 123] | – | 1 µM | 2 | –
CCNc1cc(-c2cc(Nc3ccc(F)c(C(F)(F)F)c3)nn2C[C@@H](O)CC)cc(C)n1 [compound 68] | – | 0.724 µM | 0 | –
Cc1cc(-c2cc(Nc3ccc(F)c(F)c3F)nn2CC(=O)NCC2CC2)ccn1 [compound 164] | – | 0.309 µM | 2 | 482%
CCNC(=O)Cn1nc(Nc2cc(F)c(F)c(F)c2)cc1-c1ccnc(C)c1 [compound 128] | – | 0.851 µM | 2 | 643%
COc1ccc(-c2cc(Nc3ccc(F)c(F)c3)nn2CCC(=O)N(C)C)c(Cl)c1 [compound 12] | – | 0.661 µM | 0 | –
Cc1cc(-c2cc(Nc3cccc(Cl)c3)nn2CC(=O)NCC2CC2)cc(C)n1 [compound 100] | – | 0.339 µM | 2 | –
